According to the Kinase Knowledgebase extract (Sharma et al. 2016):

Biological target: MAPK14 (human) (UniProt Q16539)
Experiment: Inhibition of MAPK14 Kinase Activity
Details: for inhibition: concentration not given here

Sequence of MAPK14 (human) (Q16539 whole entry, looked up): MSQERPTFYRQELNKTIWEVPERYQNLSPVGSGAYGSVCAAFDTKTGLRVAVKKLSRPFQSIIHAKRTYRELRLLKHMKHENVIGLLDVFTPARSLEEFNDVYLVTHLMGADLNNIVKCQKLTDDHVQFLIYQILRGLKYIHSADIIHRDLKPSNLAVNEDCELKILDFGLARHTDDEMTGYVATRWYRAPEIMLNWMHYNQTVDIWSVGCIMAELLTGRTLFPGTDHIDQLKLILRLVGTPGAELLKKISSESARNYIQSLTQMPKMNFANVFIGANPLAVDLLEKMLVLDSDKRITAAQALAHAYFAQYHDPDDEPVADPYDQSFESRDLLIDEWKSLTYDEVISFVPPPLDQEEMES

| SMILES | IC50 [µM] | inhibition [%] |
| --- | --- | --- |
| COC(=O)CN1CCN(C(=O)c2cc(C(C)(C)C)sc2NC(=O)Nc2cccc(Cl)c2Cl)C(C)(C)C1=O | < 5 | – |
| CON(C)C(=O)CN1CCN(C(=O)c2cc(C(C)(C)C)sc2NC(=O)Nc2ccc(F)c(F)c2Cl)CCC1=O | < 5 | – |
| CC(C)(C)c1cc(C(=O)N2CCNC(=O)C2(C)CCO)c(NC(=O)Nc2ccc(F)c(Cl)c2Cl)s1 (stereo not drawn) | < 5 | – |
| CCC(C)(C)c1cc(NC(=O)Nc2cccc(Cl)c2Cl)c(C(=O)N2CCNC(=O)C2(C)C)[nH]1 | < 5 | – |
| COCCOCCN1CCN(C(=O)c2cc(C(C)(C)C)sc2NC(=O)Nc2cccc(Cl)c2Cl)CCC1=O | – | 76 to 100 |
| CCC1(C)C(=O)N(CC(=O)NCCN(C)C)CCN1C(=O)c1cc(C(C)(C)C)sc1NC(=O)Nc1ccccc1C(F)(F)F (stereo not drawn) | < 5 | – |
| CC(C)(C)c1cc(C(=O)N2CCNC(=O)C23CC3)c(NC(=O)Nc2cccc(Cl)c2Cl)s1 | < 5 | – |
| Cc1cccc(NC(=O)Nc2sc(C(C)(C)C)cc2C(=O)N2CCN(CCN(C)C)C(=O)C2(C)C)c1Cl | < 5 | – |
| CC(C)(C)c1cc(C(=O)N2CCN(C(=O)CCCC[C@@H]3SC[C@@H]4NC(=O)N[C@@H]43)CC2)c(NC(=O)Nc2cccc(Cl)c2Cl)s1 | < 5 | – |
| COc1cccc(NC(=O)Nc2sc(C(C)(C)C)cc2C(=O)N2CCC(=O)N(CCN(C)C)CC2)c1Cl | < 5 | – |
| CNC(=O)[C@@H]1CCCN1C(=O)c1cc(C(C)(C)C)sc1NC(=O)Nc1ccc(OC(F)F)c(Cl)c1Cl | < 5 | – |
| CCc1ccccc1NC(=O)Nc1sc(C(C)(C)C)cc1C(=O)N1CCNC(=O)C1(C)C | < 5 | – |
| CC(C)(C)c1nc(NC(=O)Nc2cccc3ccccc23)c(C(=O)N2CCNC(=O)CC2)s1 | – | 76 to 100 |
| CN(C)CCNC(=O)CN1CCN(C(=O)c2cc(C(C)(C)C)sc2NC(=O)Nc2ccc(F)c(F)c2Cl)CCC1=O | < 5 | – |
| Cc1cccc(NC(=O)Nc2sc(C(C)(C)C)cc2C(=O)N2CCNS(=O)(=O)CC2)c1 | – | 76 to 100 |
| C[C@@H]1C(=O)NCCN1C(=O)c1cc(C(C)(C)C)sc1NC(=O)Nc1cccc(Cl)c1Cl | < 5 | – |
| CC(C)(C)c1cc(C(=O)N2CCNC(=O)CC2)c(NC(=O)Nc2ccc(O)c(Cl)c2Cl)s1 | < 5 | – |
| CC(C)(C)c1cc(C(=O)N2CCNC(=O)C23CCC3)c(NC(=O)Nc2ccc(F)c(Cl)c2Cl)s1 | < 5 | – |
| CC1(C)C(=O)NCCN1C(=O)c1oc(C(F)(F)F)cc1NC(=O)Nc1ccc(F)c(Cl)c1Cl | < 5 | – |
| COC(=O)CC1C(=O)NCCN1C(=O)c1cc(C(C)(C)C)sc1NC(=O)Nc1ccc2ccccc2c1 (stereo not drawn) | – | 76 to 100 |
| CC(C)(C)c1cc(C(=O)N2CCNC(=O)CC2)c(NC(=O)Nc2cnc(O)c3ccccc23)s1 | – | 26 to 50 |

| SMILES | IC50 [µM] | inhibition [%] |
| --- | --- | --- |
| COC(=O)CN1CCN(C(=O)c2cc(C(C)(C)C)sc2NC(=O)Nc2cccc(Cl)c2Cl)CC1 | < 5 | – |
| CC(C)(C)c1cc(C(=O)N2CCNC(=O)CC2)c(NC(=O)Nc2ccnc3ccccc23)s1 | – | 51 to 75 |
| O=C(Nc1cc(C(=O)N2CCS(=O)(=O)CC2)cc(C(F)(F)F)c1)Nc1cccc(Cl)c1Cl | < 5 | – |
| CC1CC(=O)NCCN1C(=O)c1cc(C(C)(C)C)sc1NC(=O)Nc1cccc(Cl)c1Cl (stereo not drawn) | < 5 | – |
| CCC(C)(C)c1cc(NC(=O)Nc2ccc(F)c(Cl)c2Cl)c(C(=O)N2CCNC(=O)C2(C)C)[nH]1 | < 5 | – |
| CC(C)(C)c1cc(C(=O)N2CCNC(=O)C2(C)CC(N)=O)c(NC(=O)Nc2cccc(Cl)c2Cl)s1 (stereo not drawn) | < 5 | – |
| CC(C)(C)c1cc(C(=O)N2CCNC(=O)C2(C)C)c(NC(=O)Nc2ccncc2Cl)s1 | < 5 | – |
| CC1(C)OCC(CNC(=O)CN2CCN(C(=O)c3cc(C(C)(C)C)sc3NC(=O)Nc3cccc(Cl)c3Cl)C(C)(C)C2=O)O1 (stereo not drawn) | < 5 | – |
| Cc1ccccc1NC(=O)Nc1sc(C(C)(C)C)cc1C(=O)N1CCN(CCN(C)C)C(=O)C1(C)C | < 5 | – |
| CC(C)(C)c1cc(C(=O)N2CCC(=O)N(CC(N)=O)CC2)c(NC(=O)Nc2cccc(Cl)c2Cl)s1 | – | 76 to 100 |
| CN(C)CCN1CCN(C(=O)c2cc(C(C)(C)C)sc2NC(=O)Nc2ccc(F)c(F)c2Cl)C(C)(C)C1=O | < 5 | – |
| CC(C)(C)c1cc(C(=O)N2CCN(CCN3CCOCC3)C(=O)C2(C)C)c(NC(=O)Nc2cccc(Cl)c2Cl)s1 | < 5 | – |
| CCC1(C)C(=O)N(CC(=O)OC)CCN1C(=O)c1cc(C(C)(C)C)sc1NC(=O)Nc1cccc(Cl)c1Cl (stereo not drawn) | < 5 | – |
| COC(=O)CC1(C)C(=O)NCCN1C(=O)c1cc(C(C)(C)C)[nH]c1NC(=O)Nc1cccc(Cl)c1Cl (stereo not drawn) | < 5 | – |
| Cn1ccc(NC(=O)Nc2sc(C(C)(C)C)cc2C(=O)N2CCNS(=O)(=O)CC2)n1 | – | 26 to 50 |
| Cc1c(Cl)cccc1NC(=O)Nc1sc(C(C)(C)C)cc1C(=O)N1CCNC(=O)C1(C)CCO (stereo not drawn) | < 5 | – |
| CN(C)CCN1CCN(C(=O)c2[nH]c(C(C)(C)C)cc2NC(=O)Nc2cccc(Cl)c2Cl)C(C)(C)C1=O | < 5 | – |
| CC(C)(C)c1cc(C(=O)N2CCNC(=O)C2(C)C)c(NC(=O)Nc2ccc(C#N)c3ccccc23)s1 | < 5 | – |
| COC(=O)CC1(C)C(=O)NCCN1C(=O)c1sc(C(C)(C)C)cc1NC(=O)Nc1ccc(F)c(F)c1Cl (stereo not drawn) | < 5 | – |
| CC(C)(C)c1cc(C(=O)N2CCNC(=O)C2(C)CCO)c(NC(=O)Nc2cccc(Cl)c2Cl)s1 (stereo not drawn) | < 5 | – |
| COc1c(Cl)cccc1NC(=O)Nc1sc(C(C)(C)C)cc1C(=O)N1CCNC(=O)C1(C)CCO (stereo not drawn) | < 5 | – |

| SMILES | IC50 [µM] | inhibition [%] |
| --- | --- | --- |
| CC(C)(C)c1cc(C(=O)N2CCNC(=O)C2(C)C)c(NC(=O)Nc2ccccc2C(C)(C)C)s1 | < 5 | – |
| CC(C)(C)c1cc(C(=O)N2CCN(CC(=O)O)C(=O)C2(C)C)c(NC(=O)Nc2cccc(Cl)c2Cl)s1 | < 5 | – |
| CC(C)(C)c1cc(C(=O)N2CCNC(=O)C2(C)C)c(NC(=O)Nc2cc(Cl)cc(Cl)c2)s1 | < 5 | – |
| COC(=O)CC1(C)C(=O)NCCN1C(=O)c1cc(C(C)(C)C)sc1NC(=O)Nc1cccc(Cl)c1Cl (stereo not drawn) | < 5 | – |
| CC(C)(C)c1cc(C(=O)N2CCNC(=O)CC2)c(NC(=O)Nc2ccc(Cl)cc2Cl)s1 | < 5 | – |
| CC(C)(C)c1cc(C(=O)N2CCNC(=O)CC2)c(NC(=O)Nc2cccc3c2OCO3)s1 | < 5 | – |
| CC(C)(C)c1cc(C(=O)N2CCN(CCO)C(=O)C2(C)C)c(NC(=O)Nc2cccc(Cl)c2Cl)s1 | < 5 | – |
| CC(C)(C)c1cc(NC(=O)Nc2cccc(Cl)c2Cl)c(C(=O)N2CCNC(=O)C2(C)C)s1 | < 5 | – |
| CC(C)(C)c1cc(C(=O)N2CCN(CC(N)=O)C(=O)C2(C)C)c(NC(=O)Nc2cccc(Cl)c2Cl)s1 | < 5 | – |
| CN(C)CCN1CCN(C(=O)c2[nH]c(C(C)(C)C)cc2NC(=O)Nc2cccc(Cl)c2Cl)CCC1=O | < 5 | – |
| CN(C)CCN(C)C(=O)CN1CCN(C(=O)c2cc(C(C)(C)C)sc2NC(=O)Nc2cccc(Cl)c2Cl)C(C)(C)C1=O | < 5 | – |
| CN(C)CCN1CCN(C(=O)c2[nH]c(C(C)(C)C)cc2NC(=O)Nc2ccc(F)c(Cl)c2Cl)CCC1=O | < 5 | – |
| Cc1cccc(NC(=O)Nc2sc(C(C)(C)C)cc2C(=O)N2CCNC(=O)C2(C)C)c1Cl | < 5 | – |
| CN(C)CCN1CCN(C(=O)c2nc(C(C)(C)C)sc2NC(=O)Nc2cccc(Cl)c2Cl)CCC1=O | < 5 | – |
| CC(C)(C)c1cc(C(=O)N2CCNC(=O)C2(C)C)c(NC(=O)Nc2cccc(Cl)c2Cl)[nH]1 | < 5 | – |
| CC(C)(C)c1cc(C(=O)N2CCNC(=O)C2)c(NC(=O)Nc2cccc3c2OCO3)s1 | < 5 | – |
| CCC1(C)C(=O)N(CC(=O)NCCN(C)C)CCN1C(=O)c1cc(C(C)(C)C)sc1NC(=O)Nc1cccc(Cl)c1Cl (stereo not drawn) | < 5 | – |
| COC(=O)c1ccc(NC(=O)Nc2sc(C(C)(C)C)cc2C(=O)N2CCNC(=O)CC2)c(Cl)c1Cl | < 5 | – |
| CON(C)C(=O)CN1CCN(C(=O)c2cc(C(C)(C)C)sc2NC(=O)Nc2ccc(F)c(Cl)c2Cl)C(C)(C)C1=O | < 5 | – |
| Cc1cccc(Cl)c1NC(=O)Nc1cc(C(C)(C)C)sc1C(=O)N1CCNC(=O)C1(C)C | < 5 | – |
| CC(C)(C)c1cc(C(=O)N2CCNC(=O)CC2)c(NC(=O)Nc2ccccc2Cl)s1 | < 5 | – |

| SMILES | IC50 [µM] | inhibition [%] |
| --- | --- | --- |
| CON(C)C(=O)CN1CCN(C(=O)c2[nH]c(C(C)(C)C)cc2NC(=O)Nc2cccc(Cl)c2Cl)C(C)(C)C1=O | < 5 | – |
| CONC(=O)CN1CCN(C(=O)c2cc(C(C)(C)C)sc2NC(=O)Nc2cccc(Cl)c2Cl)C(C)(CC(=O)NOC)C1=O (stereo not drawn) | < 5 | – |
| CON(C)C(=O)CC1(C)C(=O)NCCN1C(=O)c1cc(C(C)(C)C)sc1NC(=O)Nc1ccc(F)c(Cl)c1Cl (stereo not drawn) | < 5 | – |
| CC(C)(C)c1cc(C(=O)N2CCNC(=O)C2(C)C)c(NC(=O)Nc2cccc3c2OCO3)s1 | < 5 | – |
| Cc1c(F)cccc1NC(=O)Nc1sc(C(C)(C)C)cc1C(=O)N1CCNC(=O)C1(C)CCO (stereo not drawn) | < 5 | – |
| CN(C)CCN1CCN(C(=O)c2cc(C(C)(C)C)sc2NC(=O)Nc2cccc(Cl)c2Cl)C(C)(C)C1=O | < 5 | – |
| CC(C)(C)c1cc(C(=O)N2CCNC(=O)C2(C)C)c(NC(=O)Nc2ccc(OC(F)F)c(Cl)c2Cl)s1 | < 5 | – |
| Cc1noc(CC2(C)C(=O)NCCN2C(=O)c2cc(C(C)(C)C)sc2NC(=O)Nc2ccc(F)c(Cl)c2Cl)n1 (stereo not drawn) | < 5 | – |
| CC(C)(C)c1cc(NC(=O)Nc2cccc(Cl)c2Cl)c(C(=O)N2CCNC(=O)CC2)s1 | – | 76 to 100 |
| CN(C)C(=O)N1CCN(C(=O)c2cc(C(C)(C)C)sc2NC(=O)Nc2cccc(Cl)c2Cl)CC1 | < 5 | – |
| COC(=O)CC1(C)C(=O)NCCN1C(=O)c1[nH]c(C(C)(C)C)cc1NC(=O)Nc1ccc(F)c(Cl)c1Cl (stereo not drawn) | < 5 | – |
| CC(=O)N1CCCN(C(=O)c2cc(C(C)(C)C)sc2NC(=O)Nc2cccc(Cl)c2Cl)CC1 | < 5 | – |
| CC(C)(C)c1cc(C(=O)N2CCNC(=O)C23CCCC3)c(NC(=O)Nc2cccc(Cl)c2Cl)s1 | < 5 | – |
| CCC1(C)C(=O)N(CC(=O)NCCN2CCOCC2)CCN1C(=O)c1cc(C(C)(C)C)sc1NC(=O)Nc1cccc(Cl)c1Cl (stereo not drawn) | < 5 | – |
| CC(C)(C)c1cc(NC(=O)Nc2ccc(F)c(Cl)c2Cl)c(C(=O)N2CCNC(=O)C2(C)C)[nH]1 | < 5 | – |
| CC(C)(C)c1cc(C(=O)N2CCN(C(=O)N3CCOCC3)CC2)c(NC(=O)Nc2cccc(Cl)c2Cl)s1 | < 5 | – |
| CC(C)(C)c1nc(C(=O)N2CCNS(=O)(=O)CC2)c(NC(=O)Nc2cccc(Cl)c2Cl)s1 | < 5 | – |
| CCOC(=O)CN1CCN(C(=O)c2cc(NC(=O)Nc3ccc(F)c(Cl)c3Cl)c(C(C)(C)C)s2)C(C)(CC(=O)OC)C1=O (stereo not drawn) | < 5 | – |
| CC(C)(C)c1cc(C(=O)N2CCNC(=O)C2(C)C)c(NC(=O)Nc2cccc3ccccc23)s1 | < 5 | – |
| CCC1(C)C(=O)NCCN1C(=O)c1cc(C(C)(C)C)sc1NC(=O)Nc1ccc(F)c(Cl)c1Cl (stereo not drawn) | < 5 | – |
